From article PMC6733504, “Effects of flavoring compounds used in electronic cigarette refill liquids on endothelial and vascular function” (PLoS ONE, 2019)

Assays:
endothelial cells [1] = assay: MTT to formazan conversion (viability); type: cell-based, porcine; conditions: 1 mM, 60 minutes
Experimental: The viability of endothelial cells was judged by incubation with 1 mM of the flavoring compounds, followed by determination of 3-(4,5-dimethyl-2-thiazolyl)-2,5-diphenyltetrazolium bromide (MTT) to formazan conversion using the Cayman MTT Cell Proliferation Assay Kit purchased through VWR International (Vienna, Austria).

rat aortic rings [2] = assay: Effect of flavorings on vascular tone of U-46619 precontracted aortic rings; conditions: 95% CI; for EC50: Rattus norvegicus
Experimental: Unsexed Sprague-Dawley rats (obtained from Charles River, Sulzfeld, Germany) were housed at the local animal facility in approved cages. […] Animals were euthanized in a box that was gradually filled with CO2 until vital signs had ceased (cessation of respiration and circulation). Subsequently, the thorax of the animals was opened, the thoracic aorta was removed, cleaned from connective tissue and immediately used for assessment of vessel function.
After equilibration for 60 min at the optimal resting tension of 20 mN, maximal contractile activity was determined with a depolarizing solution containing 60 mM K^+. […] When contraction had reached a stable plateau (~after 20 min) cumulative concentration-response curves were established with flavorings. Where indicated, the effects of the flavorings on vascular tone were tested in the presence of the NOS inhibitor N^G-nitro-L-arginine methyl ester (L-NAME, 0.2 mM).
Concentration-response curves of different ring segments from a single animal were averaged and counted as an individual experiment.

endothelial cells [3] = assay: LDH release (membrane integrity); conditions: 1 mM, 60 minutes; maximum = 1% Triton
Experimental: To test for membrane integrity, endothelial cells were assayed for release of lactate dehydrogenase (LDH) into the culture medium. Subsequent to incubation with flavoring compounds (1 mM each) for 1 hour, 20-μl aliquots of the culture media were mixed with 200 μl of reagent buffer (1 mM pyruvate and 0.1 mM NAD^+ in PBS). The decrease in light absorbance at 340 nm was monitored using a diode array spectrophotometer (Hewlett Packard 8452A). Maximum LDH release was determined by treating the cells with 1% Triton X-100.

[4] = target: T1, soluble guanylate cyclase (sGC) (Bos taurus, UniProt P16068+P19687); assay: Activity of purified sGC stimulated with DEA/NO; type: biochemical, bovine; conditions: for Emax of DEA/NO-stimulated sGC activity in presence of flavoring: flavoring 1 mM, DEA/NO 0.01–10 μM
T1 construct: The activity of sGC purified from bovine lung; from tissue; host or cells: bovine lung
T1 sequence (P19687 1-691): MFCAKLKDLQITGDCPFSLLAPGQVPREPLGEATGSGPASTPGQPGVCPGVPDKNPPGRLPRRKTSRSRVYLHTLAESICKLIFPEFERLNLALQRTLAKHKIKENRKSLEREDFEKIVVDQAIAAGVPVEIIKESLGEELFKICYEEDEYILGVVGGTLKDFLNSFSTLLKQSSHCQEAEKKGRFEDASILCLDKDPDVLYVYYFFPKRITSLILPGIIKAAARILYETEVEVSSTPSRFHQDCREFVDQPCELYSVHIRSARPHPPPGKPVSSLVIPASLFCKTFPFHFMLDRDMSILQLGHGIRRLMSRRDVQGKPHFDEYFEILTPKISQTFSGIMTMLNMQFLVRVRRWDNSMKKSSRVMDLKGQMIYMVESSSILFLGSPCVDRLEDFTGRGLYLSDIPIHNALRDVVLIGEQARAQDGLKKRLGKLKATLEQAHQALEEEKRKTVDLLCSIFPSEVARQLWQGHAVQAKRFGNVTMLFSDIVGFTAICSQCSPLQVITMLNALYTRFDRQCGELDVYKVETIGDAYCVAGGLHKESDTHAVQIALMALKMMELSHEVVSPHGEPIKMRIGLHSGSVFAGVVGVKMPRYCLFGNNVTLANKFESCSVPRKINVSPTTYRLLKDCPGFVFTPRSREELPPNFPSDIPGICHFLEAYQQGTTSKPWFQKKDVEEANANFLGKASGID
T1 sequence (P16068 1-619): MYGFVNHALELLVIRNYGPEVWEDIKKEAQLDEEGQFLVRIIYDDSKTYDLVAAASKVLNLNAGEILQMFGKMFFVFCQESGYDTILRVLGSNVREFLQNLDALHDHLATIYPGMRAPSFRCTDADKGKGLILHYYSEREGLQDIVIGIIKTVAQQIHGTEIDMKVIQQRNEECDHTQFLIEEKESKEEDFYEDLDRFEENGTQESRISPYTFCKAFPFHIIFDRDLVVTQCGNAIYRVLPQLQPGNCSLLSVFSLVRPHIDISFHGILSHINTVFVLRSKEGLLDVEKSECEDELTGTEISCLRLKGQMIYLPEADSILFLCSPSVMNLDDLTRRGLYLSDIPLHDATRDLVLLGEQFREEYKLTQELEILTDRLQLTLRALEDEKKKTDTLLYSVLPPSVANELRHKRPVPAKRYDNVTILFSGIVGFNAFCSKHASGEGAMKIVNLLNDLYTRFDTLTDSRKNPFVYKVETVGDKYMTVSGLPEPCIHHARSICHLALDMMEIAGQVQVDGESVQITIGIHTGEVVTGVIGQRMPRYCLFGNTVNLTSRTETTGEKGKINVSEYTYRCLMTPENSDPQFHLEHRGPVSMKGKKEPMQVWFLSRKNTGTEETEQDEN
Experimental: The activity of sGC purified from bovine lung was determined as formation of [^32P]cGMP from [α-^32P]GTP. The purified enzyme (50 ng) was incubated at 37°C for 10 min in a final volume of 0.1 ml in the absence or presence of flavorings with the NO donor DEA/NO at concentrations indicated in the figure legends, followed by isolation of [^32P]cGMP and quantification of radioactivity (Cerenkov radiation) in a β counter.
To test for reversibility of inhibition, sGC (50 ng) was preincubated in the absence or presence of the respective compounds for 5 minutes at 37°C, followed by 50-fold dilution in the assay mixtures and incubation with DEA/NO at 37°C for 10 minutes.

[5] = rats, after intravenous cinnamaldehyde; cited from earlier work
[6] = Electrochemical determination of NO released from DEA/NO (NO scavenging); conditions: DEA/NO 1 μM
Experimental: Scavenging of NO by flavoring compounds was studied with a nitric oxide sensor (ISO-NOP, World Precision Instruments, Berlin, Germany), calibrated with acidified nitrite as described previously. Free NO radical was generated by incubation of DEA/NO (1 μM) in 1 ml of 100 mM phosphate buffer, pH 7.4, in the absence or presence of superoxide dismutase (2500 U/ml) at ambient temperature. At the peak concentration of NO, flavoring compounds (10 μl of DSMO stock solutions) were added, DMSO served as vehicle control.

[7] = test system: endothelium-denuded rat aortic rings; assay: cAMP and cGMP levels in endothelium-denuded aortic rings; conditions: 10 µM
From the text: 1 S4 Table. […]
2 endothelium-denuded rat aortic rings.
Flavoring (fmol x mg-1) (fmol x mg-1)
4 En d o th e liu m-denuded rings, treated with test compounds as described in the
5 Materials and methods section of the main text, were freeze-clamped when maximal
6 relaxation had been reached. Rings were homogenized in 5% trichloroacetic acid
7 and analyzed for cAMP and cGMP by radioimmunoassay. Forskolin and DEA/NO
8 were used to induce maximal accumulation of cAMP and cGMP, respectively. Data
9 shown are mean values±SEM of 3 (forskolin and DEA/NO) or 6 (basal,
10 cinnamaldehyde and eugenol) rings; n.d., not determined, *p<0.05 vs. basal (ANOVA
11 and Dunnett's post hoc test).

[8] = test system: Porcine aortic endothelial cells (endogenous NO/cGMP pathway); assay: A23187 (Ca2+ ionophore)-induced endothelial cGMP formation; type: cell-based; conditions: NNA 0.3 mM
Experimental: Porcine aortic endothelial cells were isolated as described and cultured at 37°C, 5% CO2 for up to 3 passages in Dulbecco´s modified Eagle´s medium, containing 10% heat-inactivated fetal calf serum (FCS), 100 U/ml penicillin, 0.1 mg/ml streptomycin, and 1.25 μg/ml amphotericin B. Prior to experiments, cells were subcultured into 24-well plates (determination of cGMP formation) or 6-well plates (determination of L-citrulline formation).
Accumulation of intracellular 3',5'-cyclic GMP (cGMP) was determined as previously described. Briefly, endothelial cells were washed and preincubated with the compounds to be tested for 15 minutes at 37°C in 50 mM Tris buffer, pH 7.4, containing 100 mM NaCl, 5 mM KCl, 1 mM MgCl2, 2.5 mM CaCl2, 1 mM 3-isobutyl-1-methylxanthine, and 1 μM indomethacin. Reactions were started by addition of the Ca^2+ ionophore A 23187 (final concentration 1 μM) or the NO donor DEA/NO (final concentration 1 μM) and terminated after 4 minutes by removal of the incubation medium and addition of 0.01 M HCl. Within 1 h, intracellular cGMP was completely released into the supernatant and measured by radioimmunoassay.

rat aortic rings [9] = assay: Relaxation of U-46619 precontracted aortic rings to acetylcholine; conditions: vehicle, no flavoring, 95% CI, read-out: EC50 of vascular relaxation to acetylcholine
Experimental: Animal experiments were performed in compliance with the Austrian law on experimentation with laboratory animals (last amendment 2013) based on the European Union guidelines for the Care and the Use of Laboratory Animals (European Union Directive 2010/63/EU). Unsexed Sprague-Dawley rats (obtained from Charles River, Sulzfeld, Germany) were housed at the local animal facility in approved cages. They were fed standard chow (Altromin 3023; obtained from Königshofer Futtermittel, Ebergassing, Austria) and received water ad libitum. Animals were euthanized in a box that was gradually filled with CO2 until vital signs had ceased (cessation of respiration and circulation). […]
For isometric tension measurements, vessel rings with intact endothelium were suspended in 5-ml organ baths containing oxygenated Krebs-Henseleit buffer (concentrations in mM: NaCl 118.4, NaHCO3 25, KCl 4.7, KH2PO4 1.2, CaCl2 2.5, MgCl2 1.2, D-Glucose 11; pH 7.4), as previously described in detail. After equilibration for 60 min at the optimal resting tension of 20 mN, maximal contractile activity was determined with a depolarizing solution containing 60 mM K^+. […]
Effects are expressed as percent of relaxation of U-46619-induced contraction. Concentration-response curves of different ring segments from a single animal were averaged and counted as an individual experiment.

[10] = absence of L-NAME, read-out: EC50 of relaxation of pre-contracted vessels (Control)
[11] = presence of L-NAME 0.2 mM, read-out: EC50 of relaxation of pre-contracted vessels (L-NAME)

In the case of CC12CCC(CC1)C(C)(C)O2 [Eucalyptol, 1,3,3-Trimethyl-2-oxabicyclo[2.2.2]octane], the “Formazan formation (% of control)” value (endothelial cells [1]) is reported as 99±2.0 % of control, the “EC50 of relaxation of pre-contracted vessels (Control)” value (shortened to “EC50 of relaxation … (Control)”) (rat aortic rings [2]; absence of L-NAME) is reported as “no effects below 10 mM” and the “LDH release (% of maximum)” value (endothelial cells [3]) is reported as 1.0±0.27 % of maximum.
With CC1CCC(C(C)C)C(O)C1 (stereo not drawn) [Menthol, 5-Methyl-2-(propan-2-yl)cyclohexan-1-ol] the “Formazan formation (% of control)” value (endothelial cells [1]) was 100±2.9 % of control, the EC50 (rat aortic rings [2]; [10]) was 1600 µM and the EC50 (rat aortic rings [2]; [11]) was 1400 µM. The “LDH release (% of maximum)” value (endothelial cells [3]) was 0.8±0.03 % of maximum and the “Emax of DEA/NO-stimulated sGC activity in presence of flavoring” value (“Emax of DEA/NO-stimulated sGC activity” below) [4] was 28±0.4 µmol cGMP x min-1 x mg-1.
In the case of COc1cc(C=O)ccc1O [Vanillin, 4-Hydroxy-3-methoxybenzaldehyde], the “Formazan formation (% of control)” value (endothelial cells [1]) is reported as 109±6.7 % of control, the EC50 (rat aortic rings [2]; [10]) is reported as 1700 µM and the EC50 (rat aortic rings [2]; [11]) is reported as 1800 µM. The “LDH release (% of maximum)” value (endothelial cells [3]) was 1.4±0.72 % of maximum and the “Emax of DEA/NO-stimulated sGC activity” value [4] was 25±0.6 µmol cGMP x min-1 x mg-1.
For O=C(O)/C=C/c1ccccc1 [cinnamic acid], the Biological half-life [5] is listed as “about 7 minutes”.
O=Cc1ccccc1 [Benzaldehyde, benzaldehyde] showed an EC50 (rat aortic rings [2]; [10]) of 2200 µM and an EC50 (rat aortic rings [2]; [11]) of 2500 µM.
With CC(=O)C(C)=O [Diacetyl, Butane-2,3-dione] the “Formazan formation (% of control)” value (endothelial cells [1]) was 95±4.6 % of control, the “EC50 of relaxation … (Control)” value (rat aortic rings [2]; absence of L-NAME) was “no effects below 10 mM” and the “LDH release (% of maximum)” value (endothelial cells [3]) was 0.6±0.03 % of maximum. The IC50 ([4]; DEA/NO 0.05 μM, 95% CI) was 290 µM, the “Effect on recorded NO signal (NO scavenging)” value ([6]; 1 mM) was “only moderate effects” and the “Effect on recorded NO signal (NO scavenging)” value ([6]; 10 mM) was “pronounced decrease”.
With C=C[C@@]1(C)CC(=O)[C@]2(O)[C@@]3(C)[C@@H](O)CCC(C)(C)[C@@H]3[C@H](O)[C@H](OC(C)=O)[C@@]2(C)O1 [Forskolin, reference compound] the cAMP [7] was 9309±488 fmol x mg-1.
In the case of Cc1cnc(C)cn1 [Dimethylpyrazine, 2,5-Dimethylpyrazine], the “Formazan formation (% of control)” value (endothelial cells [1]) is reported as 103±3.7 % of control, the EC50 (rat aortic rings [2]; [10]) is reported as 4200 µM and the EC50 (rat aortic rings [2]; [11]) is reported as 5200 µM. The “LDH release (% of maximum)” value (endothelial cells [3]) was 0.9±0.12 % of maximum and the “Emax of DEA/NO-stimulated sGC activity” value [4] was 27±0.7 µmol cGMP x min-1 x mg-1.
For CC(=O)OCCC(C)C [Isoamylacetate, 3-Methylbutyl acetate], the “Formazan formation (% of control)” value (endothelial cells [1]) was 103±3.8 % of control, the “EC50 of relaxation … (Control)” value (rat aortic rings [2]; absence of L-NAME) was “no effects below 10 mM” and the “LDH release (% of maximum)” value (endothelial cells [3]) was 0.7±0.28 % of maximum. The “Emax of DEA/NO-stimulated sGC activity” value [4] was 28±0.7 µmol cGMP x min-1 x mg-1.
With N=C(NCCC[C@H](N)C(=O)O)N[N+](=O)[O-] [NNA, N^G-nitro-L-arginine, reference compound] the “Effect on A23187-induced cGMP accumulation” value [8] was “completely inhibited”.
CC(=O)OCC[N+](C)(C)C [acetylcholine] showed an EC50 (rat aortic rings [9]) of 0.055 µM.
With CC(=O)c1ccccn1 [Acetylpyridine, 1-(Pyridin-2-yl)ethan-1-one] the “Formazan formation (% of control)” value (endothelial cells [1]) was 102±4.4 % of control, the EC50 (rat aortic rings [2]; [10]) was 3700 µM and the EC50 (rat aortic rings [2]; [11]) was 5600 µM. The “LDH release (% of maximum)” value (endothelial cells [3]) was 0.7±0.12 % of maximum and the “Emax of DEA/NO-stimulated sGC activity” value [4] was 28±0.8 µmol cGMP x min-1 x mg-1.
